Several values for one entry are separate records, joined by “and”; a condition that tells them apart may be missing. Identical values can stand only once. Entries after “also recorded” stand apart in the source; their conditions may differ. Like-named read-outs stand apart in the source and are kept apart here.
Assays:
P. falciparum merozoites = system: P. falciparum merozoites; parameters: method as in earlier work; details: live cell imaging; ref 11 (Dans et al 2020); cited from earlier work
CR-N309K parasites = test: Growth inhibition assay (72 h, LDH activity); format: cell-based, Plasmodium falciparum
Description: (§1) Parasite growth assays with inhibitory compounds were performed as per[11] and are fully described in the Supplementary Information.
(§2) Molecular biology and transfection of P. falciparum: CRISPR method.
(§3) The full 5’ homology region of pfstart1 (either WT, N309K or N330K) was amplified from pPfSTART1-HA-2A-Neo-glmS with the same 5’ BglII primer and a new 3’ primer that replaced with PstI with SpeI and introduced a stop codon. The PCR product was then digested with BglII and SpeI and inserted into similarly digested p1.2 parasite vector2. The p1.2 vector had previously been inserted with a homology region amplified from the 3’ end of the pfstart1 gene (3’HB) to form a second homology block for double recombination. The primers used to amplify 3’HB are listed primers listed in […]
(§4) 60 μg of p1.2-PfSTART1(WT/N309K/N330K) plasmid was linearised with KasI, precipitated in 3 M sodium acetate and ethanol (70% final concentration) overnight at -20°C. The DNA pellet was washed in cold 70% ethanol and resuspended in cytomix 3.
(§5) 50 μ M of crRNA ( Table S 2) and 50 μM of tracRNA (Integrated DNA Technologies) were allowed to form a duplex (5 min at 95°C), and Cas9 enzyme (Integrated DNA Technologies) was added, and incubated for 20 min at room temperature 4. This crRNA -tracRNA -Cas9 mix was added to each DNA preparation and transfected to 3D7 ring parasites using the Bio -Rad Gene Pulser at 310 V and 950 μF.
(§6) Parasites containing the transfected DNA were selected using 2.5 nM WR99210 (Jacobus). Parasites lines were cloned using limiting dilution. Correct integration was tested by PCR (using primer START_5’UTR.F and START_Int.R1 , Table S 2), and sequencing was done using the primers START_3F and START_Int.R2 (Table S 2).
(§7) Growth inhibition assays. Synchronised ring-stage parasites (0.3-0.6% parasitemia, 2% haematocrit) were grown for 72 h in a serial-dilution of the compound under […]
(§8) and compound 4. Note that M-833 was first purchased from MolPort (MolPort -002-267-916) then made in-house at WEHI: the differences observed in EC50s across experiments are attributed to the different batches of M -833. For some experiments, 0, 0.25 or 2.5 mM of glucosamine (GlcN) was also added. Experiments were set up in technical duplicates or triplicates. Following a freeze -thaw cycle, lactate dehydrogenase (LDH) activity was assessed as an indicator of parasite growt h 5. 30 μL of parasite culture was incubated for 30 min in the dark with 75 μL Malstat mixture (0.1 M Tris pH 9.0, 20 g/L lactic acid, pH 7.5, 0.2% Triton-X100, 0.5 g/L acetylpyridine adenine dinucleotide (APAD, Sigma), 200 μg/mL nitroblue tetrazolium (NBT; Sigma), 1 μg/mL phenozine ethosulfate (PES; Sigma)). Absorbance was then measured at 650 nm, transformed using the formula below, plotted against the logarithm of the concentrations, and a non-linear regression (log(inhibitor) vs. response, variable slope) was calculated using GraphPad Prism to assess the half-inhibitory […]
(§9) Growth inhibition % = (1 − average(sample)− average(uRBC)) ∗ 100 […]
(§10) The DMSO samples were also used to assess growth of parasite in the presence of 0.25 and 2.5 mM GlcN (normalised by DMSO in 0 mM GlcN).
(§11) Egress, invasion & recovery assay. To measure egress, invasion and follow up recovery in the presence of different compounds, we adapted the method developed in6, using Hyp1-Nluc parasites7. These parasites episomally express the exported PEXEL protein Hyp1 (PF3D7_0113300) tagged with a NanoLuc luciferase (NLuc) and were selected with 2.5 nM WR99210 (Jacobus). Highly synchronised schizonts were obtained using ML10 (LifeArc) and sorbitol synchronisation, and Percoll-purified (the culture was gently layered over 67% Percoll (Cytiva) in RPMI, and centrifuged for 15 min at 1500 g and the schizont layer was collected and washed). In a 96-well plate, […]

CR-N330K parasites = test: Growth inhibition assay (72 h, LDH activity); format: cell-based, Plasmodium falciparum; details: for inhibition at 40 µM / inhibition at 0.00203221 µM / inhibition at 0.00609663 µM / inhibition at 0.0182899 µM / inhibition at 0.0548697 µM / inhibition at 0.164609 µM / inhibition at 0.493827 µM / inhibition at 1.48148 µM / inhibition at 4.44444 µM / inhibition at 13.3333 µM / EC50: Plasmodium falciparum; for inhibition at 40 µM / inhibition at 0.00203221 µM / inhibition at 0.00609663 µM / inhibition at 0.0182899 µM / inhibition at 0.0548697 µM / inhibition at 0.164609 µM / inhibition at 0.493827 µM / inhibition at 1.48148 µM / inhibition at 4.44444 µM / inhibition at 13.3333 µM: read-out: Growth inhibition assay, NORMALISED; for inhibition at 0.00203221 µM: conc 2.03221 nM; for inhibition at 0.00609663 µM: conc 6.09663 nM; for inhibition at 0.0182899 µM: conc 18.2899 nM; for inhibition at 0.0548697 µM: conc 54.8697 nM; for inhibition at 0.164609 µM: conc 164.609 nM; for inhibition at 0.493827 µM: conc 493.827 nM; for inhibition at 1.48148 µM: conc 1481.48 nM; for inhibition at 4.44444 µM: conc 4444.44 nM
Description: as §1, §2, §3, §4, §5, §6, §7, §8, §9, §10, §11

[1] = 0.25 mM GlcN, M833 dilution point 1 of 10 (starting concentration 40 uM)
[2] = 2.5 mM GlcN, M833 dilution point 1 of 10 (starting concentration 40 uM)
[3] = 2.5 mM GlcN, M833 dilution point 2 of 10 from 40 uM start
[4] = 2.5 mM GlcN, M833 dilution point 3 of 10 from 40 uM start

Cc1cc(Cl)c(S(=O)(=O)N2CCCC2)cc1OCC(=O)NC1CCCCC1 [M-833]
effect on merozoite invasion and ring differentiation (P. falciparum merozoites): invasion itself was slowed down but not reduced; also recorded: failed to differentiate into an amoeboid ring-stage parasite | Growth inhibition assay, NORMALISED (CR-N309K parasites; 0 mM GlcN, conc 13333.3 nM): 96.3035 and 81.5013 | Growth inhibition assay, NORMALISED (CR-N309K parasites; 0 mM GlcN, conc 40000 nM): 90.3753 | NORMALISED (growth inhibition, LDH absorbance vs DMSO and uRBC) (CR-N309K parasites; [1]): 109.622 and 93.8958 and 89.0356 | NORMALISED (growth inhibition, LDH absorbance vs DMSO and uRBC) (CR-N309K parasites; 0.25 mM GlcN, M833 dilution point 2 of 10 from 40 uM start): 100.45 and 85.8318 and 85.1660 | NORMALISED (growth inhibition, LDH absorbance vs DMSO and uRBC) (CR-N309K parasites; 0.25 mM GlcN, M833 dilution point 3 of 10 from 40 uM start): 91.9964 and 60.0606 and 52.4793 | NORMALISED (growth inhibition, LDH absorbance vs DMSO and uRBC) (CR-N309K parasites; [2]): 151.073 and 87.1969 and 79.8969 | NORMALISED (growth inhibition, LDH absorbance vs DMSO and uRBC) (CR-N309K parasites; [3]): 113.734 and 82.9449 and 82.5963 | NORMALISED (growth inhibition, LDH absorbance vs DMSO and uRBC) (CR-N309K parasites; [4]): 124.034 and 76.1318 and 75.9272 | fold resistance compared to CR-WT (CR-N309K parasites; Fig 2D): over 81 fold | inhibition at 40 µM (CR-N309K parasites; Plasmodium falciparum, 0 mM GlcN, conc 40000 nM, read-out: Growth inhibition assay, NORMALISED): 107% | EC50 (CR-N309K parasites; Plasmodium falciparum, 72 h, read-out: EC50 (95% confidence interval), Fig 2D, 72 h, n = 3): 4.03 µM | EC50 (CR-N309K parasites; Plasmodium falciparum, Fig 3F, 0 mM GlcN, n = 3, read-out: EC50 M-833 (95% confidence interval)): 4 µM | EC50 (CR-N309K parasites; Plasmodium falciparum, read-out: EC50 M-833 (95% confidence interval), Fig 3F, 0.25 mM GlcN, n = 3): 2.18 µM | EC50 (CR-N309K parasites; Plasmodium falciparum, read-out: EC50 M-833 (95% confidence interval), Fig 3F, 2.5 mM GlcN, n = 3): 0.768 µM | fold reduction of EC50 on addition of 2.5 mM GlcN (CR-N309K parasites; not statistically significant): 5.2 fold | effect of GlcN addition on EC50 (CR-N330K parasites): did not impact the EC50 | Growth inhibition assay, NORMALISED (CR-N330K parasites; 0 mM GlcN, conc 13333.3 nM): 83.0053 and 71.7328 and 58.9456 | Growth inhibition assay, NORMALISED (CR-N330K parasites; 0 mM GlcN, conc 40000 nM): 89.2357 and 89.8575 | NORMALISED (growth inhibition, LDH absorbance vs DMSO and uRBC) (CR-N330K parasites; [1]): 90.8081 and 87.9797 and 87.1506 | NORMALISED (growth inhibition, LDH absorbance vs DMSO and uRBC) (CR-N330K parasites; [2]): 93.6897 and 84.3760 and 68.7638 | NORMALISED (growth inhibition, LDH absorbance vs DMSO and uRBC) (CR-N330K parasites; [3]): 66.9588 and 63.6686 and 78.5050 | NORMALISED (growth inhibition, LDH absorbance vs DMSO and uRBC) (CR-N330K parasites; [4]): 62.4014 and 35.5339 and 55.9192 | fold resistance compared to CR-WT (CR-N330K parasites; Fig 2D): over 81 fold | inhibition at 40 µM (CR-N330K parasites; 0 mM GlcN, conc 40000 nM): 98.2% | inhibition at 0.00203221 µM (CR-N330K parasites; 0.25 mM GlcN): 1.04% | inhibition at 0.00609663 µM (CR-N330K parasites; 0.25 mM GlcN): 4.9% | inhibition at 0.0182899 µM (CR-N330K parasites; 0.25 mM GlcN): 1.5% | inhibition at 0.0548697 µM (CR-N330K parasites; 0.25 mM GlcN): 3.6% | inhibition at 0.164609 µM (CR-N330K parasites; 0.25 mM GlcN): -2.8% | inhibition at 0.493827 µM (CR-N330K parasites; 0.25 mM GlcN): 5.89% | inhibition at 1.48148 µM (CR-N330K parasites; 0.25 mM GlcN): 18.6% | inhibition at 4.44444 µM (CR-N330K parasites; 0.25 mM GlcN): 54.4% | inhibition at 13.3333 µM (CR-N330K parasites; 0.25 mM GlcN, conc 13333.3 nM): 83.8% | inhibition at 40 µM (CR-N330K parasites; 0.25 mM GlcN, conc 40000 nM): 98.3% | inhibition at 0.00203221 µM (CR-N330K parasites; 2.5 mM GlcN): -48.3% | inhibition at 0.00609663 µM (CR-N330K parasites; 2.5 mM GlcN): -31% | inhibition at 0.0182899 µM (CR-N330K parasites; 2.5 mM GlcN): -30.8% | inhibition at 0.0548697 µM (CR-N330K parasites; 2.5 mM GlcN): -27.3% | inhibition at 0.164609 µM (CR-N330K parasites; 2.5 mM GlcN): -23.4% | inhibition at 0.493827 µM (CR-N330K parasites; 2.5 mM GlcN): -11.7% | inhibition at 1.48148 µM (CR-N330K parasites; 2.5 mM GlcN): 13.1% | inhibition at 4.44444 µM (CR-N330K parasites; 2.5 mM GlcN): 36.6% | inhibition at 13.3333 µM (CR-N330K parasites; 2.5 mM GlcN, conc 13333.3 nM): 32.3% | inhibition at 40 µM (CR-N330K parasites; 2.5 mM GlcN, conc 40000 nM): 94% | EC50 (CR-N330K parasites; 72 h, read-out: EC50 (95% confidence interval), Fig 2D, 72 h, n = 3): 9.51 µM | EC50 (CR-N330K parasites; Fig 3F, 0 mM GlcN, n = 3, read-out: EC50 M-833 (95% confidence interval)): 9.5 µM | EC50 (CR-N330K parasites; read-out: EC50 M-833 (95% confidence interval), Fig 3F, 0.25 mM GlcN, n = 3): 8.92 µM | EC50 (CR-N330K parasites; read-out: EC50 M-833 (95% confidence interval), Fig 3F, 2.5 mM GlcN, n = 3): 8.73 µM

Reference: article PMC11189555, “Aryl amino acetamides prevent Plasmodium falciparum ring development via targeting the lipid-transfer protein PfSTART1” (Nature Communications, 2024)
